Here are results for 18 compounds from patent US4783462A, “3(2H)pyridazinone, and anti-allergic agent containing it” (Nissan Chemical Industries Ltd., priority 1985, dated 1988).

The test system of one data set is LTC4. Briefly: Antagonism in isolated guinea-pig trachea, Test method (i) (Table 3, given as LTC4 antagonism). The conditions noted are these: 5 min, test compound 10^-5 g/ml, given as LTC4 antagonisms; for inhibition at 10 µg/mL: Cavia porcellus. In kind it is cell-based. The essentials: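 Spiral strips of guinea-pig trachea under 1 g tension, contracted by LTC4 (2×10^-8 g/ml) after maximal histamine (10^-4 M) response. Compounds added at 10^-5 or 10^-6 g/ml final 5 min beforehand; contraction expressed as % histamine maximum and antagonism % calculated against paired untreated trachea.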

Data set [1] has as its system LTD4. Briefly: LTD4 antagonism in isolated guinea-pig trachea, Test method (i) (Table 4, values with asterisk). The class given is cell-based. The settings on record: Cavia porcellus, 5 min, test compound 10^-6 g/ml, 5 min prior. The method, then: (i) LTC4 and LTD4 antagonisms in guinea-pig trachea
Antagonisms for LTC4 and LTD4 were determined in isolated guinea-pig trachea prepared as spiral strip. Tracheal preparations were suspended under 1 g tension in 10 ml organ baths and they were incubated for 1 hr prior to use. Contractile responses to LTC4 (2×10^-8 g/ml) and LTD4 (2×10^-8 g/ml) were obtained after the maximal response to histamine (10^-4 M). Test compounds dissolved in 100% dimethyl sulfoxide were added to the organ baths (final concentration of 10^-5 g/ml or 10^-6 g/ml) 5 min prior to LTC4 and LTD4 addition, and then contractile responses to LTC4 and LTD4 were compared with those of control which was obtained from a paired trachea in the absence of test compounds. LTC4 - and LTD4 -induced contractions were expressed as a percentage of the maximal response to histamine. The antagonism was determined as follows:
(§1) Antagonism (%)=(1.0-% contraction in test/% contraction in […]

Data set [2] concerns anaphylactic bronchoconstriction in passively sensitized guinea-pig. Kind of data set: Effect on anaphylactic bronchoconstriction in passively sensitized guinea-pig. In kind it is in vivo. The settings on record: 2 mg/kg i.v. As for the experimental part:
(iii) Effect on anaphylactic bronchoconstriction in passively sensitized guinea-pig
Male guinea-pigs (350-450 g) were passively sensitized with intravenous (i.v.) injection of 0.125 ml rabbit anti-EA (egg albumin) serum (Cappel Laboratories) 1 day preceding the experiment. […] Sensitized guinea-pigs were anaesthetized with intraperitoneal injection of urethane (1.5 g/kg). The right jugular vein was cannulated for the administration of the all agents and trachea was cannulated to record total pulmonary resistance. Guinea-pigs were artificially ventilated by a small animal respirator (Shinano, Model SN-480-7) set at a stroke volume of 5 ml and a rate of 50 breaths per min. […] The increase in air overflow volume was expressed as a percentage of the maximum bronchoconstriction obtained by clamping off the trachea. Following surgical preparation, the animals were pretreated with indomethacin (1.0 mg/kg, 10 min), pyrilamine (2 mg/kg, 6 min) and propranolol (0.1 mg/kg, 5 min) prior to the EA challenge (0.1 or 10 mg/kg). All test compounds, 2 mg/kg in 3% Tween 80 or 3% PEG-400, were administered 1 min before the EA challenge. Inhibition (%) of bronchoconstriction was determined as follows: Inhibition (%)=(1.0%-maximum bronchoconstriction in test/% maximum bronchoconstriction in control)×100. The maximum bronchoconstriction was obtained within 20 min after the EA challenge.
In the Table, the dose of EA was 10 mg/kg, and each compound was dissolved or suspended in 3% Tween 80.
The dose of EA was 0.1 mg/kg.

The next data set concerns ddY strain male mice. Kind of data set: Acute toxicity test, Test method-(2), intraperitoneal. The class given is in vivo. The settings on record: 7 days. The method, then:
The lethal ratio was determined in ddY strain male mice (4 weeks old) at 7 days after the intraperitoneal injection of test compounds.

Data set [3] has as its system LTD4. Briefly: LTD4 antagonism in isolated guinea-pig trachea with indomethacin, Test method (ii) (Table 4). The class given is cell-based. The settings on record: Cavia porcellus, 0.5 h, LTD4 2×10^-8 g/ml, test compound 10^-6 g/ml, 30 min prior, 5 μmol indomethacin. The method, then: (ii) LTD4 antagonism in guinea-pig trachea
Antagonism for LTD4 was determined in isolated guinea-pig trachea prepared as spiral strip. Tracheal preparations were suspended under 1 g tension in 10 ml organ baths containing 5 μmol of indomethacin and they were incuated for 1 hr prior to use. Contractile responses to LTD4 (2×10^-8 g/ml) were obtained after the maximal response to histamine (10^-4 M). Test compounds dissolved in 100% dimethyl sulfoxide were added to the organ baths (final concentration of 10^-6 g/ml) 30 min prior to LTD4 addition, and then contractile responses to LTD4 were compared with those of control which was obtained from a paired trachea in the absence of test compounds. LTD4 -induced contractions were expressed as a percentage of the maximal response to histamine. The antagonism was determined as follows:
as §1

[4] abbreviates: Table 5-(2), EA 0.1 mg/kg, PEG-400.

Turning to `CCCc1cc(C(=O)OC)ccc1OCCCNc1cnn(CC)c(=O)c1Cl` [Compound No. 6, 4-Chloro-5-[3-(2-n-propyl-4-methoxycarbonylphenoxy)propylamino]-2-ethyl-3(2H)pyridazinone], the inhibition at 10 µg/mL in the data set on LTC4 worked out at 96%. The compound further returned an inhibition at 1 µg/mL in the data set with LTD4 [1] of 78%. Moreover, in data set [2] (setting [4]), the “Inhibition (%)” value worked out at 44%.
Take `CCCc1cc(C(=O)O)ccc1OCCCNc1cnn(C(C)C)c(=O)c1Cl` [Compound No. 41, 4-chloro-5-[3-(2-n-propyl-4-carboxyphenoxy)propylamino]-2-i-propyl-3(2H)pyridazinone]: in the data set with LTC4, the “Antagonism (%)” value is recorded as 100%. For the same compound, in the data set with ddY strain male mice (200 mg/kg intraperitoneal), the “Lethal ratio (Death number/Experimental number)” value is on record as 0/2. In the data set on LTD4 [3], this compound yielded an inhibition at 1 µg/mL of 82%. The “Inhibition (%)” value in data set [2] (Table 5-(2), EA 0.1 mg/kg, Tween 80) is listed as 31%.
In turn, `CCCc1cc(C(N)=O)ccc1OCCCNc1cnn(C(C)C)c(=O)c1Cl` [Compound No. 42, 4-Chloro-5-[3-(2-n-propyl-4-carbamoylphenoxy)propylamino]-2-i-propyl-3(2H)pyridazinone] returned an inhibition at 10 µg/mL in the data set with LTC4 of 95%. The “Lethal ratio (Death number/Experimental number)” value in the data set with ddY strain male mice (200 mg/kg intraperitoneal) is reported as 0/2; with ddY strain male mice (400 mg/kg intraperitoneal), 0/1. The compound also returned an inhibition at 1 µg/mL in the data set on LTD4 [3] of 76%. The “Inhibition (%)” value in data set [2] (setting [4]) was 31%.
For `CCCCc1cc(C(=O)O)ccc1OCCCNc1cnn(C(C)C)c(=O)c1Cl` [Compound No. 112, 4-chloro-5-[3-(2-n-butyl-4-carboxyphenoxy)propylamino]-2-i-propyl-3(2H) pyridazinone], the inhibition at 10 µg/mL in the data set with LTC4 stood at 100%. Moreover, testing at 1 µg/mL in the data set on LTD4 [1] gave an inhibition of 62%.
Consider `CCCCc1cc(C(N)=O)ccc1OCCCNc1cnn(C(C)C)c(=O)c1Cl` [Compound No. 114, 4-Chloro-5-[3-(2-n-butyl-4-carbamoylphenoxy)propylamino]-2-i-propyl-3-(2H)pyridazinone], for which the inhibition at 10 µg/mL with LTC4 was found to be 89%. In the data set on LTD4 [1], this compound came in with an inhibition at 1 µg/mL of 66%.
Take `C=CCc1cc(C#N)ccc1OCCCNc1cnn(CC)c(=O)c1Br` [Compound No. 117]: at 10 µg/mL the inhibition in the data set with LTC4 was 98%. For the same compound, in the data set on LTD4 [1], the inhibition at 1 µg/mL is 67%.
With `CCCCc1cc(C(=O)O)ccc1OCCCNc1cnn(C(C)C)c(=O)c1Br` [Compound No. 127], in the data set on LTD4 [1], the inhibition at 1 µg/mL was 91%.
As to `CCCc1cc(C#N)ccc1OCC(CNc1cnn(C(C)C)c(=O)c1Cl)OC` (stereo not drawn) [Compound No. 158, 4-Chloro-5-[3-(2-n-propyl-4-cyanophenoxy)-2-methoxypropylamino]-2-i-propyl-3(2H)pyridazinone], in the data set with LTC4, the inhibition at 10 µg/mL amounted to 93%. This compound also registered an inhibition at 1 µg/mL in the data set with LTD4 [1] of 53%.
Compound `CCCc1cc(C#N)ccc1OCCCNc1cnn(CC)c(=O)c1Cl` [compound 47] came in with an inhibition at 10 µg/mL in the data set on LTC4 of 99%. Also, the “Lethal ratio (Death number/Experimental number)” value with ddY strain male mice (200 mg/kg intraperitoneal) and with ddY strain male mice (400 mg/kg intraperitoneal) was 0/2 in each case. In data set [2] (Table 5-(1), EA 10 mg/kg, 3% Tween 80), the “Inhibition (%)” value amounted to 28%.
Consider `CCCc1cc(C#N)ccc1OCCCNc1cnn(CC)c(=O)c1Br` [compound 116], for which the inhibition at 10 µg/mL in the data set on LTC4 stood at 90%. The compound also came in with an inhibition at 1 µg/mL in the data set on LTD4 [1] of 82%.
`CCCc1cc(C(=O)OC)ccc1OCCCNc1cnn(CC)c(=O)c1Br` [compound 118]: in the data set with LTC4, the inhibition at 10 µg/mL turned out to be 91%. The same compound came in with an inhibition at 1 µg/mL with LTD4 [1] of 69%.
As for `CCCc1cc(C#N)ccc1OCCCNc1cnn(C(C)C)c(=O)c1Br` [compound 120], 1 µg/mL produced 82% inhibition in the data set on LTD4 [1].
In the data set with LTD4 [1], `CCCc1cc(C(N)=O)ccc1OCCCNc1cnn(CC)c(=O)c1Br` [compound 121] showed an inhibition at 1 µg/mL of 43%.
Compound `C=CCc1cc(C#N)ccc1OCCCNc1cnn(C(C)C)c(=O)c1Br` [compound 123] displayed an inhibition at 1 µg/mL with LTD4 [1] of 65%.
The same measure, in the same setting: the result for `CCCc1cc(C#N)ccc1OCCCNc1cnn(C(C)(C)C)c(=O)c1CCC` [compound 128] reads 17%; that for `CCCc1cc(C(=O)OC)ccc1OCCCNc1cn[nH]c(=O)c1CCC` [compound 131], 33%.
As to `CCCc1cc(C(=O)O)ccc1OCCCNc1cn[nH]c(=O)c1CCC` [compound 132], the inhibition at 1 µg/mL in the data set on LTD4 [1] came out at 26%.
On the same count and under the same terms, the result for `CCCc1cc(C(=O)OC)ccc1OCCCNc1cnn(CC)c(=O)c1CCC` [compound 133] reads 27%.

In general, inhibition refers to the relative decrease from the control value, in per cent. Higher therefore signals a strong effect.
